# Data published in patent US11413261B2, “Pharmaceutical composition for treating cancer comprising lactate metal salt” (METIMEDI PHARMACEUTICALS CO., LTD, priority 2014, dated 2022).
# Key:
# [1] = test system: human lung cancer cell line (A549); assay: Colony-forming ability, anticancer drug in combination with calcium lactate (6-well plates); type: cell-based; details: vs control
# Method: Human breast cancer cell line (MCF-7) and a human lung cancer cell line (A549) with the cell number of 1×10^3 cells were seeded into an RPMI1640 medium in each of 6-well plates. […]. Then, the colony-forming abilities of the cells were compared. In this case, a human breast cancer cell line (MCF-7) and a human lung cancer cell line (A549) untreated with any drug were used as control groups (FIGS. 42a, 42b, 43a and 43b).
# (§1) Human lung cancer cell line (A549) with the cell number of 1×10^3 cells were seeded into an RPMI1640 medium in each of 6-well plates. […]. Then, the colony-forming abilities of the cells were compared. In this case, a human lung cancer cell line (A549) untreated with any drug was used as a control group (FIGS. 44a and 44b).
# as §1, with “47a” for “44a”, “47b).” for “44b).”
# as §1, with “49a” for “44a”, “49b).” for “44b).”
# as §1, with “50a” for “44a”, “50b).” for “44b).”
# as §1, with “51a” for “44a”, “51b).” for “44b).”
# cancer cell = assay: Dissociation of metal lactate salts to lactate in a cancer cell; type: cell-based
# [2] = test system: human kidney cancer cell line (Caki-1); assay: Colony-forming ability, anticancer drug in combination with calcium lactate (6-well plates); type: cell-based; details: 0.3, 0.5, 1 nM Everolimus alone, vs control
# Method: Human kidney cancer cell line (Caki-1) with the cell number of 1×10^3 cells were seeded into an RPMI1640 medium in each of 6-well plates. After one day, the medium was replaced with fresh medium and the cells were treated with 0.3 nM, 0.5 nM, and 1 nM Everolimus alone or treated with various concentrations (0.3 nM, 0.5 nM, and 1 nM) of Everolimus in combination with 2.5 mM calcium lactate. Then, the colony-forming abilities of the cells were compared. In this case, a human kidney cancer cell line (Caki-1) untreated with any drug was used as a control group (FIGS. 53a and 53b).
# [3] = test system: human colorectal cancer cell line HCT-116; details: 5 mM CA individually, 10 days
# [4] = test system: human breast cancer cell line (MCF-7); assay: Colony-forming ability, anticancer drug in combination with calcium lactate (6-well plates); type: cell-based; details: vs control
# Method: Human breast cancer cell line (MCF-7) and a human lung cancer cell line (A549) with the cell number of 1×10^3 cells were seeded into an RPMI1640 medium in each of 6-well plates. […] Then, the colony-forming abilities of the cells were compared. In this case, a human breast cancer cell line (MCF-7) and a human lung cancer cell line (A549) untreated with any drug were used as control groups (FIGS. 42a, 42b, 43a and 43b).
# Human breast cancer cell line (MCF-7) with the cell number of 1×10^3 cells were seeded into an RPMI1640 medium in each of 6-well plates. After one day, the medium was replaced with fresh medium and the cells were treated with 2.5 mM calcium lactate or 2 μM, 4 μM, and 8 μM Lapatinib alone or treated with various concentrations (2 μM, 4 μM, and 8 μM) of Lapatinib in combination with 2.5 mM calcium lactate. Then, the colony-forming abilities of the cells were compared. In this case, a human breast cancer cell line (MCF-7) untreated with any drug was used as a control group (FIGS. 52a and 52b).
# [5] = test system: human colorectal cancer cell line (HT-29); assay: as above; type: cell-based; details: vs control
# Method: as §1, with “colorectal” for “lung”, “(HT-29)” for “(A549)”, “46a” for “44a”, “46b).” for “44b).”
# as §1, with “colorectal” for “lung”, “(HT-29)” for “(A549)”, “48a” for “44a”, “48b).” for “44b).”
# as §1, with “colorectal” for “lung”, “(HT-29)” for “(A549)”, “(FIG. 55).” for “(FIGS. 44a and 44b).”
# [6] = test system: human liver cancer cell line (Hep3B); assay: as above; type: cell-based; details: 1, 2.5, 5 μM Sorafenib alone, vs control
# Method: Human liver cancer cell line (Hep3B) with the cell number of 1×10^3 cells were seeded into an RPMI1640 medium in each of 6-well plates. After one day, the medium was replaced with fresh medium and the cells were treated with 2.5 mM calcium lactate or 1 μM, 2.5 μM, and 5 μM Sorafenib alone or treated with various concentrations (1 μM, 2.5 μM, and 5 μM) of Sorafenib in combination with 2.5 mM calcium lactate. Then, the colony-forming abilities of the cells were compared. In this case, a human liver cancer cell line (Hep3B) untreated with any drug was used as a control group (FIGS. 45a and 45b).
# [7] = test system: human vascular endothelial cell (HUVEC); assay: Tube formation of HUVEC in culture supernatants of treated cancer cell lines; type: cell-based; details: HUVEC treated with Sulforaphane (comparison group)
# Text: A human vascular endothelial cell (HUVEC) was inoculated into each of the obtained culture supernatant and cultured to analyze a conformational change of cells (FIG. 17). In this case, an HUVEC cultured using the culture medium of a cancer cell line cultured without treating with calcium lactate was used as a control group, and an HUVEC cultured with the treatment with Sulforaphane, which is a growth inhibitor of an HUVEC, was used as a comparison group.
# [8] = test system: human colorectal cancer cell lines (HT-29 and HCT-116); assay: Colony-forming ability, anticancer drug in combination with calcium lactate (6-well plates); type: cell-based; details: vs control
# Method: Human colorectal cancer cell lines (HT-29 and HCT-116) with the cell number of 1×10^3 cells were seeded into an RPMI1640 medium in each of 6-well plates. After one day, the medium was replaced with fresh medium and the cells were treated with 2.5 mM calcium lactate or 1 μM, 2.5 μM, and 5 μM Imatinib alone or treated with various concentrations (1 μM, 2.5 μM, and 5 μM) of Imatinib in combination with 2.5 mM calcium lactate. Then, the colony-forming abilities of the cells were compared. In this case, human colorectal cancer cell lines (HT-29 and HCT-116) untreated with any drug were used as control groups (FIGS. 38a, 38b, 39a and 39b).
# Human colorectal cancer cell lines (HT-29 and HCT-116) with the cell number of 1×10^3 cells were seeded into an RPMI1640 medium in each of 6-well plates. After one day, the medium was replaced with fresh medium and the cells were treated with 2.5 mM calcium lactate or 2.5 μM, 5 μM, and 10 μM 5-FU alone or treated with various concentrations (2.5 μM, 5 μM, and 10 μM) of 5-FU in combination with 2.5 mM calcium lactate. Then, the colony-forming abilities of the cells were compared. In this case, human colorectal cancer cell lines (HT-29 and HCT-116) untreated with any drug were used as control groups (FIGS. 40a, 40 b, 41a and 41b).
# [9] = 0.63, 1.3, 2.5 nM Paclitaxel alone
smiles,measurement,setting,value
COc1cc2ncnc(Nc3ccc(F)c(Cl)c3)c2cc1OCCCN1CCOCC1 [Gefitinib],colony-forming ability,"[1]; 1.3, 2.5, 5 μM Gefitinib alone",suppressed
CC(O)C(=O)[O-].[Na+] (stereo not drawn) [sodium lactate],dissociation to lactate in a cancer cell,cancer cell,can be dissociated to lactate
"CO[C@H]1C[C@@H]2CC[C@@H](C)[C@@](O)(O2)C(=O)C(=O)N2CCCC[C@H]2C(=O)O[C@H]([C@H](C)C[C@@H]2CC[C@@H](OCCO)[C@H](OC)C2)CC(=O)[C@H](C)/C=C(\C)[C@@H](O)[C@@H](OC)C(=O)[C@H](C)C[C@H](C)/C=C/C=C/C=C/1C [Everolimus, reference compound]",colony-forming ability,[2],suppressed
"O=C(O)C=Cc1ccccc1 [CA, cinnamic acid, reference compound]",survival rate,[3],about 60%
CC(=O)O[C@@]12CO[C@@H]1C[C@H](O)[C@@]1(C)C(=O)[C@H](O)C3=C(C)[C@@H](OC(=O)[C@H](O)[C@@H](NC(=O)OC(C)(C)C)c4ccccc4)C[C@@](O)([C@@H](OC(=O)c4ccccc4)[C@H]21)C3(C)C [Docetaxel],colony-forming ability,"[1]; 0.6, 1.3, 2.5 nM Docetaxel alone",suppressed
CC(=O)O[C@H]1C(=O)[C@@]2(C)[C@H]([C@H](OC(=O)c3ccccc3)[C@]3(O)C[C@H](OC(=O)[C@H](O)[C@@H](NC(=O)c4ccccc4)c4ccccc4)C(C)=C1C3(C)C)[C@]1(OC(C)=O)CO[C@@H]1C[C@@H]2O [Paclitaxel],colony-forming ability,[4]; [9],suppressed
same,colony-forming ability,[1]; [9],suppressed
CN(Cc1cnc2nc(N)nc(N)c2n1)c1ccc(C(=O)N[C@@H](CCC(=O)O)C(=O)O)cc1 [Methotrexate],colony-forming ability,"[1]; 5, 10, 20 nM Methotrexate alone",suppressed
C#Cc1cccc(Nc2ncnc3cc(OCCOC)c(OCCOC)cc23)c1 [Erlotinib],colony-forming ability,"[1]; 0.5, 1, 2 μM Erlotinib alone",suppressed
CCc1c2c(nc3ccc(OC(=O)N4CCC(N5CCCCC5)CC4)cc13)-c1cc3c(c(=O)n1C2)COC(=O)[C@]3(O)CC [Irinotecan],colony-forming ability,"[5]; 0.5, 1, 2 μM Irinotecan alone",suppressed
"CNC(=O)c1cc(Oc2ccc(NC(=O)Nc3ccc(Cl)c(C(F)(F)F)c3)cc2)ccn1 [Sorafenib, reference compound]",colony-forming ability,[6],suppressed
CS(=O)(=O)CCNCc1ccc(-c2ccc3ncnc(Nc4ccc(OCc5cccc(F)c5)c(Cl)c4)c3c2)o1 [Lapatinib],colony-forming ability,"[4]; 2, 4, 8 μM Lapatinib alone",suppressed
N.N.O=C([O-])C1(C(=O)[O-])CCC1.[Pt+2] [Carboplatin],colony-forming ability,"[1]; 2.5, 5, 10 μM Carboplatin alone",suppressed
"C[S+]([O-])CCCCN=C=S (stereo not drawn) [Sulforaphane, reference compound]",tube-forming ability of HUVEC,[7],reduced tube-forming ability
O=c1[nH]cc(F)c(=O)[nH]1 [5-FU],colony-forming ability,"[8]; 2.5, 5, 10 μM 5-FU alone",suppressed
CC(O)C(=O)[O-].[K+] (stereo not drawn) [potassium lactate],dissociation to lactate in a cancer cell,cancer cell,can be dissociated to lactate
Cc1ccc(NC(=O)c2ccc(CN3CCN(C)CC3)cc2)cc1Nc1nccc(-c2cccnc2)n1 [Imatinib],colony-forming ability,"[8]; 1, 2.5, 5 μM Imatinib alone",suppressed
O=C1[O][Pt]2([NH][C@@H]3CCCC[C@H]3[NH]2)[O]C1=O [Oxaliplatin],colony-forming ability,"[5]; 1.3, 2.5, 5 μM Oxaliplatin alone",suppressed
